Measured values reported in publication PMC6359039, “Pharmacokinetics, Tissue Distribution, Plasma Protein Binding Studies of 10-Dehydroxyl-12-Demethoxy-Conophylline, a Novel Anti-Tumor Candidate, in Rats” (Molecules, 2019).
Entries after “also recorded” stand apart in the source; their conditions may differ. Read-outs that look alike come from different tables or passages of the source.

Columns and labels:
[1] = Plasma pharmacokinetics in rats after i.v. and i.g. dosing (UPLC-FLR); format: in vivo, Sprague Dawley rats; set-up: CL: unit not given here; conditions: rat; for MRT: Sprague-Dawley; for pharmacokinetic model fit: plasma concentration–time data, DAS 2.0
Protocol: Sprague Dawley rats (half male and female) with a body mass 180–220 g were provided by the Laboratory Animal Center of Medical University of Anhui (Hefei, China), Certificate number: SCXK(wan) 2015-002. Animals were housed under controlled conditions (temperature 22 ± 2 °C, humidity 50% ± 5%, 12 h dark/light cycle) with standardized diet and acclimatized for 7 days, prior to the experiments. All protocols and care of the rats were performed in strict compliance with the Guidelines for the Use of Laboratory Animals (National Research Council) and authorized by the Animal Care and Use Committee of Anhui University of Chinese Medicine.
(§1) Chromatographic separation was performed using a UPLC system (Waters ACQUITY-CLASS. US) with an analytical column Kinetex (C18, 1.7 μm, 2.1 mm × 100 mm; Phenomenex; California; CA, USA) at 25 °C. Water and methanol (75:25) were used as the isocratic elution, running at a flow rate of 0.2 mL/min. The detector was used with fluorescence (FLR) detection with a fluorescence excitation wavelength of 330 nm and a fluorescence emission wavelength of 439 nm.
The rat intravenous doses were determined as 4, 8, and 12 mg/kg, and the intragastric administration dose was 20 mg/kg. These were selected to investigate whether the pharmacokinetics of the drug was linear over the range of doses used. In all, 18 (SD) rats (half male and female) were randomly divided into three groups, namely, high-, medium- and low-dose groups. The rats fasted 12 h be before the administration of 10-dehydroxyl-12-demethoxy-conophylline but with free access to water. 10-dehydroxyl-12-demethoxy-conophylline was dissolved in normal saline and added with 5% ethanol. Amounts of 4, 8, and 12 mg/kg (0.5 mL/100 g) were injected into the tail vein of the rat, and 0.3 mL of blood was taken from the eyelid before administration (0 min) and 2, 5, 15, 30, 60, 90, 120, 180, 240, and 300 min after intravenous administration. Another 6 rats (half male and female) were administered an intragastrical (i.g.) dose of 20 mg/kg. Blood samples (0.3 mL) were collected by retro-orbital bleeding into heparinized 1.5mL tubes before administration (0 min) and 15, 30, 60, 90, 120, 240, 480, and 600 min after intragastric administration. Immediately after collection, the blood samples were centrifuged at 3500 rpm for 10 min to obtain plasma, and originating supernatants were also stored at −70 °C until analysis.
Plasma samples (90 μL) were spiked with 10 μL internal standard (100 ng/mL) and extracted with 300 μL of methanol by vortexing for 10 min. The plasma and aqueous phases were separated by centrifugation at 14,000 rpm for 10 min. The supernatants were transferred to another tube and evaporated to dryness at 50 °C. The residue was dissolved in 100 μL methanol and vortexed. A 2 μL aliquot of the solution was injected into the UPLC system for analysis.
The pharmacokinetic parameters were calculated using the pharmacokinetic software DAS 2.0 (Chinese Pharmacological Association, Beijing, China) by non-compartmental and compartmental analysis method. The elimination half-life (t1/2) was determined by linear regression of the terminal portion (last the points) of the plasma concentration–time curve. The area under the plasma concentration–time curve from zero to the last measurable plasma concentration point (AUC0-t) was calculated using the linear trapezoidal method. Extrapolation from time zero to infinity (AUC0-∞) was calculated as follows:AUC0-∞ = AUC0-t + Ct/ke,(2) where Ct is the last measurable plasma concentration and ke is the terminal elimination rate constant. […]

[2] = Tissue distribution in rats after a single i.v. dose; format: in vivo, Sprague Dawley rats; conditions: rat, single i.v. dose 8 mg/kg
Protocol: as §1
For the tissue concentration study of 10-dehydroxyl-12-demethoxy-conophylline, 18 (SD) rats (half male and female) were randomly divided into three groups. The rats were administered intravenously at a dose of 8 mg/kg of 10-dehydroxyl-12-demethoxy-conophylline, and the rats were euthanized at 5, 20, and 45 min after administration. Samples of their tissues and blood were carefully collected and washed with sodium phosphate buffer (pH 7.4) to remove blood. Each tissue (0.2 g) was homogenized in normal saline (1 mL). Subsequently, an amount 120 μL of the homogenate was pipetted into 480 μL of methanol and vortexed for 3 min, and then centrifuged at 14,000 rpm for 10 min. The supernatant was then centrifuged again at 14,000 rpm for 10 min and stored at −70 °C until analysis. The preparation process for analysis was the same as described above for plasma.

[3] = Plasma protein binding by equilibrium dialysis, rat plasma; format: in vitro ADME; conditions: Sprague Dawley
Protocol: (§2) Protein binding was determined in vitro by equilibrium dialysis of plasma of rats or human serum albumin. Blank dialysate, internal dialysate, and external dialysate were prepared separately. The internal dialysate was prepared by taking 0.4 mL of blank plasma and adding 100 μL of the 10-dehydroxyl-12-demethoxy-conophylline series standard solution to prepare the equivalent of 10-dehydroxyl-12-demethoxy-conophylline plasma concentrations of 0.078, 0.156, 0.312, 0.625, 1.250, 2.500, 5.000, and 20.000 μg/mL simulating biological samples. The external dialysate was prepared by taking 0.4 mL of blank dialysate and adding 100 μL of the 10-dehydroxyl-12-demethoxy-conophylline series standard solution to prepare the equivalent of 10-dehydroxyl-12-demethoxyconophylline plasma concentrations of […] simulating dialysate samples. The protein binding rate of 10-dehydroxyl-12-demethoxy-conophylline in plasma was measured using the equilibrium dialysis method in this experiment. The concentration of unbound compound (B) and bound compound to protein (A) were calculated as follows:F = (A − B)/A,(1) where F is the bounded fraction, A is the compound concentration in the plasma compartment, and B is the concentration of the compound in the phosphate buffer compartment.

[4] = Plasma protein binding by equilibrium dialysis, human plasma; format: in vitro ADME; conditions: read-out: protein binding degree (converted)
Protocol: as §2

[5] = tested on: HL-60; set-up: method as in PMID 29772302; conditions: cited from earlier work
[6] = tested on: SMMC-7721; set-up: method as in PMID 29772302; conditions: cited from earlier work
[7] = tested on: A-549; set-up: method as in PMID 29772302; conditions: cited from earlier work
[8] = tested on: MCF-7; set-up: method as in PMID 29772302; conditions: cited from earlier work
[9] = tested on: SW480; set-up: method as in PMID 29772302; conditions: cited from earlier work
[10] = both sexes, Sprague Dawley, plasma, iv, 4 mg/kg i.v., mean ± SD, n = 6
[11] = both sexes, Sprague Dawley, plasma, iv, 8 mg/kg i.v., mean ± SD, n = 6
[12] = both sexes, Sprague Dawley, plasma, iv, 12 mg/kg i.v., mean ± SD, n = 6
[13] = both sexes, Sprague Dawley, plasma, po, 20 mg/kg i.g., mean ± SD, n = 6
[14] = 12 mg/kg i.v., mean ± SD, n = 6
[15] = 20 mg/kg i.g., mean ± SD, n = 6

## CC[C@@]12CC(C(=O)OC)=C3Nc4cc5c(cc4[C@@]34CCN(C[C@H]3O[C@H]31)[C@@H]24)[C@@H]1C(O5)[C@@H](O)[C@@]2(CC)CC(C(=O)OC)=C3Nc4cc(OC)ccc4[C@@]34CCN1[C@@H]24 (stereo partly shown) [10-dehydroxyl-12-demethoxy-conophylline, 10-Dehydroxyl-12-demethoxy-conophylline]
[1]; both sexes, Sprague Dawley, plasma, iv, 4 mg/kg i.v.
  AUC(0-inf): 1140 ng·h/mL
[1]; [10]
  AUC(0-t): 988 ng·h/mL
  clearance: 41 ± 70 mL/min/kg
[1]; [11]
  AUC(0-inf): 2190 ng·h/mL
  AUC(0-t): 2150 ng·h/mL
  clearance: 39 ± 120 mL/min/kg
[1]; both sexes, Sprague Dawley, plasma, iv, 12 mg/kg i.v.
  AUC(0-inf): 5090 ng·h/mL
[1]; [12]
  AUC(0-t): 3910 ng·h/mL
  clearance: 41 ± 50 mL/min/kg
[1]; both sexes, Sprague Dawley, plasma, oral, 20 mg/kg i.g. versus i.v., read-out: absolute oral bioavailability
  bioavailability: 15.8%
[1]; [13]
  AUC(0-inf): 1240 ng·h/mL
  AUC(0-t): 867 ng·h/mL
[1]; both sexes, Sprague Dawley, plasma, iv, 4 mg/kg, 4 mg/kg i.v., mean ± SD, n = 6
  Tmax: 0.0333 h
[1]; both sexes, Sprague Dawley, plasma, iv, 4 mg/kg, 4 mg/kg i.v., mean ± SD, n = 6, read-out: t1/2β
  half-life: 1.14 ± 0.0548 h
[1]; both sexes, Sprague Dawley, plasma, iv, 8 mg/kg, 8 mg/kg i.v., mean ± SD, n = 6
  Tmax: 0.0333 h
[1]; both sexes, Sprague Dawley, plasma, iv, 8 mg/kg, 8 mg/kg i.v., mean ± SD, n = 6, read-out: t1/2β
  half-life: 1.11 ± 0.0759 h
[1]; both sexes, Sprague Dawley, plasma, iv, 12 mg/kg, 12 mg/kg i.v., mean ± SD, n = 6
  Tmax: 0.0333 h
[1]; both sexes, Sprague Dawley, plasma, iv, 12 mg/kg, 12 mg/kg i.v., mean ± SD, n = 6, read-out: t1/2β
  half-life: 1.16 ± 0.0721 h
[1]; both sexes, Sprague Dawley, plasma, iv, 12 mg/kg, i.v. dosing at 4, 8 and 12 mg/kg, read-out: half-life t1/2α of intravenous administration
  half-life: ~0.117 h
[1]; both sexes, Sprague Dawley, plasma, iv, 12 mg/kg, i.v. dosing at 4, 8 and 12 mg/kg, read-out: t1/2β of intravenous administration
  half-life: ~1.15 h
[1]; both sexes, Sprague Dawley, plasma, po, 20 mg/kg, 20 mg/kg i.g., mean ± SD, n = 6
  Tmax: ~1.5 h
[1]; both sexes, Sprague Dawley, plasma, po, 20 mg/kg, 20 mg/kg i.g., mean ± SD, n = 6, read-out: t1/2β
  half-life: 1.17 ± 0.0447 h
[1]; both sexes, plasma, iv, 4 mg/kg i.v., mean ± SD, n = 6
  MRT: 1.52 h
[1]; both sexes, plasma, iv, 8 mg/kg i.v., mean ± SD, n = 6
  MRT: 1.42 h
[1]; both sexes, plasma, iv, 12 mg/kg i.v., mean ± SD, n = 6
  MRT: 1.36 h
[1]; both sexes, plasma, po, 20 mg/kg i.g., mean ± SD, n = 6
  MRT: 4.28 h
[1]; 4 mg/kg i.v., mean ± SD, n = 6
  AUC0–∞: 68.478 ± 8.167 µg·min/mL
  V: 2.096 ± 0.0465 L/kg
  t1/2α: 0.1164 ± 0.03832 h
[1]; 8 mg/kg i.v., mean ± SD, n = 6
  V: 1.906 ± 0.012 L/kg
  t1/2α: 0.1185 ± 0.0318 h
[1]; [14]
  AUC0–∞: 305.616 ± 17.432 µg·min/mL
  V: 2.014 ± 0.019 L/kg
  t1/2α: 0.1174 ± 0.03417 h
[1]; [15]
  CL: 0.046 ± 0.013
  V: 4.881 ± 2.390 L/kg
  t1/2α: 0.87358 ± 0.032 h
[1]; i.v. dosing at 4, 8 and 12 mg/kg
  t1/2β of intravenous administration: about 68 min
[1]
  pharmacokinetic model fit: fit to a two-room model
[1]; listed as 10-dehydroxyl-12-demethoxyconophylline
  pharmacokinetic model fit: consistent with a two-compartment pharmacokinetic model
[1]; single i.v. dose 4, 8 and 12 mg/kg
  linear correlation between AUC0→t and dose (r): 0.9821
[2]
  concentration in the brain: kept to a small amount
[2]; 5 min
  tissue distribution at 5 min: in the heart and kidney were markedly higher than in other tissues
[2]; 20 min (equilibrium time)
  tissue distribution at 20 min: the drug concentration in the lung reached the highest at this time
[2]; 45 min (elimination period)
  tissue distribution at 45 min: mainly distributed in the liver and kidney tissues
[2]; overall, 8 mg/kg
  tissue distribution, tissues with highest levels: detected in all examined tissues with the highest in kidney, liver, and lung; also recorded: the distribution in the kidney and lung is the highest
[3]; 1.00 µg/mL, equilibrium dialysis, read-out: protein binding degree (converted)
  fraction unbound at 1 µg/mL: 0.181
[3]; 2.50 µg/mL, equilibrium dialysis, read-out: protein binding degree (converted)
  fraction unbound at 2.5 µg/mL: 0.174
[3]; 5.00 µg/mL, equilibrium dialysis, read-out: protein binding degree (converted)
  fraction unbound at 5 µg/mL: 0.188
[3]; rat, three concentrations (1.00, 2.50 and 5.00 µg/mL), summary in abstract, read-out: protein binding degree
  fraction unbound: < 0.2
[4]; 1.00 µg/mL
  fraction unbound at 1 µg/mL: 0.131
[4]; 2.50 µg/mL
  fraction unbound at 2.5 µg/mL: 0.159
[4]; 5.00 µg/mL
  fraction unbound at 5 µg/mL: 0.153
[5]
  inhibitory activity on HL-60 tumor cell line: significant inhibitory activity
[6]
  inhibitory activity on SMMC-7721 tumor cell line: significant inhibitory activity
[7]
  inhibitory activity on A-549 tumor cell line: significant inhibitory activity
[8]
  inhibitory activity on MCF-7 tumor cell line: significant inhibitory activity
[9]
  inhibitory activity on SW480 tumor cell line: significant inhibitory activity
